The source made the active and inactive calls. No cut-off for these calls is given here.
Key:
Assay type in all cases: cell-based
[1] = target: Transient receptor potential cation channel subfamily M member 8 (Rattus norvegicus, UniProt Q8R455); experiment: Antagonist activity at rat TRPM8 transfected in HEK293 cells assessed as inhibition of icilin induced increase in intracellular Ca2+ concentration preincubated for 5 mins followed by icilin stimulation by Fluo4-AM dye based assay
[2] = target: T1, Transient receptor potential cation channel subfamily A member 1 (Rattus norvegicus, UniProt Q6RI86); experiment: Agonist activity at rat TRPA1 transfected in HEK293 cells assessed as increase in intracellular Ca2+ concentration by Fluo4-AM dye based assay
[3] = target: Transient receptor potential cation channel subfamily A member 1 (Rattus norvegicus) (UniProt Q6RI86); experiment: Agonist activity at rat TRPA1 transfected in HEK293 cells assessed as increase in intracellular Ca2+ concentration by measuring efficacy by Fluo4-AM dye based assay relative to AITC
[4] = target: T1, Transient receptor potential cation channel subfamily A member 1; experiment: Antagonist activity at rat TRPA1 transfected in HEK293 cells assessed as desensitization by measuring inhibition of AITC induced increase in intracellular Ca2+ concentration preincubated for 5 mins followed by AITC stimulation by Fluo4-AM dye based assay
[5] = target: Transient receptor potential cation channel subfamily V member 1 (Homo sapiens) (UniProt Q8NER1); experiment: Modulation of human TRPV1 transfected in HEK293 cells
Chain of Transient receptor potential cation channel subfamily V member 1 (Homo sapiens) (Q8NER1 whole entry): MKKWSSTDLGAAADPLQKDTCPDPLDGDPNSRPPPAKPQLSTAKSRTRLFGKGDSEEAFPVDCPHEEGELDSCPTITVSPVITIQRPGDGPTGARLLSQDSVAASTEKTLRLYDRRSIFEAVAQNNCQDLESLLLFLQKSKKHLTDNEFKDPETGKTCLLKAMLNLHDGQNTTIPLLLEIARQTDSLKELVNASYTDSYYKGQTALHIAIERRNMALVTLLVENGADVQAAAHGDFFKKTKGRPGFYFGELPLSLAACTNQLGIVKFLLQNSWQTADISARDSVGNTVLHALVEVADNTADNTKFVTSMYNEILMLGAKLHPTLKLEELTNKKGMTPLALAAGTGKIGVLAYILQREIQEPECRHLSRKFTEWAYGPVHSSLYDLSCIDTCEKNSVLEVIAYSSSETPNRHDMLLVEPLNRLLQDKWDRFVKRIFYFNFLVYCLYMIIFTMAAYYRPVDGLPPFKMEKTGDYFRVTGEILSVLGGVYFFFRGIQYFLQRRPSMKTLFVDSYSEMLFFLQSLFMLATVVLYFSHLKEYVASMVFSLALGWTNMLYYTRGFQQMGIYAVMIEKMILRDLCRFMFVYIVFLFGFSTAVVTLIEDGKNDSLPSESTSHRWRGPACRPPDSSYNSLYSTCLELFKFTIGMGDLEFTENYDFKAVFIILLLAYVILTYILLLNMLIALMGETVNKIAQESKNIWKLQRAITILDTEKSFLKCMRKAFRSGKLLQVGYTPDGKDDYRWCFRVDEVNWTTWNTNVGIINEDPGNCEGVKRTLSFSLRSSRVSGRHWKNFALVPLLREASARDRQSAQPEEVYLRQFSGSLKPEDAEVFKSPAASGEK

Chain of Transient receptor potential cation channel subfamily M member 8 (Q8R455 whole entry): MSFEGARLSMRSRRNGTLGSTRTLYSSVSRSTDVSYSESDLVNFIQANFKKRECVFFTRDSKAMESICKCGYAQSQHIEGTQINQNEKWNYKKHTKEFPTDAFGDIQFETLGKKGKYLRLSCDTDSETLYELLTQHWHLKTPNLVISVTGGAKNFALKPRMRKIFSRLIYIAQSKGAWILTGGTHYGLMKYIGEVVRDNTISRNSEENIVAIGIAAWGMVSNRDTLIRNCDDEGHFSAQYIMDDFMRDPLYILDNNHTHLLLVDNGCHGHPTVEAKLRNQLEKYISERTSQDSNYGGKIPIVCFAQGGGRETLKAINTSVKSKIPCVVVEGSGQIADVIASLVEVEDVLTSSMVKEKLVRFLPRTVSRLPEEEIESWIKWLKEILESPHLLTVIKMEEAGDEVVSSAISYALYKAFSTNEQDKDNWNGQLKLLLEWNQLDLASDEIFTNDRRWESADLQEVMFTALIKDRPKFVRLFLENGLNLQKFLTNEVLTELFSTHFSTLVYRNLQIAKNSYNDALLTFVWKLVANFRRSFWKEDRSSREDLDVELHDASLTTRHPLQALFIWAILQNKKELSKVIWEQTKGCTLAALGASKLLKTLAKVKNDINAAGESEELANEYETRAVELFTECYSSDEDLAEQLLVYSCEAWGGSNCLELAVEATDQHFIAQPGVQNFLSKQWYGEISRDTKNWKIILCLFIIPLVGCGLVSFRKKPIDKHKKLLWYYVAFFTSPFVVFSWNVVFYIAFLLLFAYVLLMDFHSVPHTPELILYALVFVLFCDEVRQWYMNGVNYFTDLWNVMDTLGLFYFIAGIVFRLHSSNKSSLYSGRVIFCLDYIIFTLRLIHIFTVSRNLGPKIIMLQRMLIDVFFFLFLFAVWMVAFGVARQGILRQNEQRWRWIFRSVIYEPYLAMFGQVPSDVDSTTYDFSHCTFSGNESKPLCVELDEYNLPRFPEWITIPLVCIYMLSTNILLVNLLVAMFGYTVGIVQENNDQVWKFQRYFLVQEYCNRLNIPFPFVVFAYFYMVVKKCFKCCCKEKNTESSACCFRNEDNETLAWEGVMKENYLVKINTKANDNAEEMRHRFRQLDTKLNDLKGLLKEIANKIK
Chain of Transient receptor potential cation channel subfamily A member 1 (Rattus norvegicus) (Q6RI86 whole entry): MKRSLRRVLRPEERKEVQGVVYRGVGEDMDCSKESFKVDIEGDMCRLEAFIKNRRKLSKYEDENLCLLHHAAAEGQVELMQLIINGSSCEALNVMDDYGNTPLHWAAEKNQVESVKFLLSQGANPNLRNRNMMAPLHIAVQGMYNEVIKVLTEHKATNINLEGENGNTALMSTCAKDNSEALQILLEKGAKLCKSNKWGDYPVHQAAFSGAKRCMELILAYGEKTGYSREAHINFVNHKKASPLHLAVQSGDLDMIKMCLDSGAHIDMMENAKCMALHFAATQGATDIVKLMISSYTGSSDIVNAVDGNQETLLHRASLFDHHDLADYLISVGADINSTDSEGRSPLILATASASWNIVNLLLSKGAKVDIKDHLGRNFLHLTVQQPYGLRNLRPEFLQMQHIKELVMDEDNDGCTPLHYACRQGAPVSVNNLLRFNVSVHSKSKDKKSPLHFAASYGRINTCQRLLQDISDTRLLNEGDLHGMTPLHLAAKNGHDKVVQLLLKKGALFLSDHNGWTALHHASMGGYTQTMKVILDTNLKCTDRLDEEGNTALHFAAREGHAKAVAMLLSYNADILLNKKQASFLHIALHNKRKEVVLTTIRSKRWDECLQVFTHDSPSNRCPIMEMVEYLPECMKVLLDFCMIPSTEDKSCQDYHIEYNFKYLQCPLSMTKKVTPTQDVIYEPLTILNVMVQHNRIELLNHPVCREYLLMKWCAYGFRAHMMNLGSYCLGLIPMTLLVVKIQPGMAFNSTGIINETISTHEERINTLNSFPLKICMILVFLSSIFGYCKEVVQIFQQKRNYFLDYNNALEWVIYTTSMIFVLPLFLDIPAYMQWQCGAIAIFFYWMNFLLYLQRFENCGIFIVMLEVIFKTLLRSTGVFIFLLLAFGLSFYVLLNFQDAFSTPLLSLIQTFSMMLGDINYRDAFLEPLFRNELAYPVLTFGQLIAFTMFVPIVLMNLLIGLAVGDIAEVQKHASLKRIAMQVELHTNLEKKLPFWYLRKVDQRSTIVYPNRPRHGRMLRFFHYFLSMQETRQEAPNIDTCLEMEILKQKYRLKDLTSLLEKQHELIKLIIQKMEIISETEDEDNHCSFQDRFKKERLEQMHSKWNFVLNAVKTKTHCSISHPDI
T1 sequence (Q6RI86 whole entry): as above

Row | Structure (SMILES) | IC50 [1] [µM] | EC50 [2] [µM] | Efficacy ([3]; filed as agonist) [%] | IC50 [4] [µM] | Activity [5] | Efficacy [3] [%]
1 | C=C(C)C(O)CC/C(C)=C/Cc1c(O)cc(CCCCC)c(C(=O)O)c1O (stereo not drawn) | 10.4 | 12.1 | 96.1 | 37.3 |  | 
2 | CCCCCc1cc(O)c(C/C=C(\C)CCC(O)C(C)(C)O)c(O)c1C(=O)O (stereo not drawn) | 17.3 | 10.3 | 84.1 | 25.1 |  | 
3 | CCCCCc1cc(O)c(C/C=C(\C)CCC=C(C)C)c(O)c1C(=O)O [CANNABIGEROLIC ACID] | 1.31 | 8.4 | 183 | 7.14 |  | 
4 | C=C(C)C(O)CC/C(C)=C\Cc1c(O)cc(CCCCC)c(C(=O)O)c1O (stereo not drawn) | 4 | 6.9 | 100 | 13.9 | inactive | 
5 | C=C(C)C(O)CC/C(C)=C/Cc1c(O)cc(CCCCC)cc1O (racemic) | 0.8 | 1 | 75.3 | 7.9 | inactive | 
6 | CCCCCc1cc(O)c(C/C=C(\C)CCC=C(C)C)c(O)c1 |  |  | 99.9 |  |  | 
7 | CCCCCC1=CC(=O)C(C/C=C(\C)CCC=C(C)C)=C(O)C1=O | 3 | 7.8 | 134 | 8.4 | inactive | 
8 | CCCCCc1cc(O)c(C/C=C(\C)CCC(=O)O)c(O)c1C(=O)O | 29.5 | 28.3 | 40.4 | > 50 |  | 
9 | C=C(C)[C@H](CCC(C)=O)[C@@H]1c2c(cc(CCCCC)c(C(=O)O)c2O)O[C@@H]1O | 8 | 8.8 | 85.7 | 19.2 |  | 
10 | C=C(C)[C@H](CCC(C)=O)[C@@H]1c2c(cc(CCCCC)c(C(=O)O)c2O)O[C@H]1O | 23.9 | 6.6 | 91.5 | 17.9 |  | 
11 | C=C(C)[C@@H](O)CC/C(C)=C/Cc1c(O)cc(CCCCC)c(C(=O)O)c1O | 33 | 15 |  | > 50 |  | 31
12 | C=C(C)[C@H](O)CC/C(C)=C/Cc1c(O)cc(CCCCC)c(C(=O)O)c1O | 5.2 | 8.5 | 68.5 | > 50 |  | 

Reference: ChEMBL document CHEMBL5385925, “Phytochemical Characterization and TRPA1/TRPM8 Modulation Profile of the Cannabigerol-Rich Cannabis sativa L. Chemotype IV” (J Nat Prod, 2024)
